# From patent US12091426B2, “Bifunctional degraders of hematopoietic progenitor kinase and therapeutic uses thereof” (Nurix Therapeutics, Inc., priority 2021, dated 2024)
# Target: T1, HPK1 (Homo sapiens, UniProt Q92918)
# T1 construct: A HiBiT tag was introduced by CRISPR on the N terminus of HPK1 in Jurkat cells; host or cells: Jurkat cells (ATCC TIB-152), monoclonal line with CRISPR knock-in of HiBiT at the endogenous HPK1 locus
# Assay: HPK1 Cellular HiBit Degradation Assay
# Format: cell-based
# Conditions: HiBiT HPK1 Jurkat cells, 24 hrs; for DC50: concentration at which 50% of HPK1 was remaining, read-out: DC50 Category; for Dmax: Jurkat, maximum degradation vs DMSO vehicle control, read-out: Dmax Category
# How it was run: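 HiBiT-HPK1 Jurkat (CRISPR, N-term tag), 3×10^4 cells/well, RPMI 1640 + 10% FBS; CTMs 10 uM–0.1 nM, 11 pts; 24 hrs, 37° C/5% CO2; lytic HiBiT luminescence; % remaining vs DMSO, parental background subtracted; 4-parameter fit → DC50, Dmax.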
# T1 sequence (Q92918 whole entry): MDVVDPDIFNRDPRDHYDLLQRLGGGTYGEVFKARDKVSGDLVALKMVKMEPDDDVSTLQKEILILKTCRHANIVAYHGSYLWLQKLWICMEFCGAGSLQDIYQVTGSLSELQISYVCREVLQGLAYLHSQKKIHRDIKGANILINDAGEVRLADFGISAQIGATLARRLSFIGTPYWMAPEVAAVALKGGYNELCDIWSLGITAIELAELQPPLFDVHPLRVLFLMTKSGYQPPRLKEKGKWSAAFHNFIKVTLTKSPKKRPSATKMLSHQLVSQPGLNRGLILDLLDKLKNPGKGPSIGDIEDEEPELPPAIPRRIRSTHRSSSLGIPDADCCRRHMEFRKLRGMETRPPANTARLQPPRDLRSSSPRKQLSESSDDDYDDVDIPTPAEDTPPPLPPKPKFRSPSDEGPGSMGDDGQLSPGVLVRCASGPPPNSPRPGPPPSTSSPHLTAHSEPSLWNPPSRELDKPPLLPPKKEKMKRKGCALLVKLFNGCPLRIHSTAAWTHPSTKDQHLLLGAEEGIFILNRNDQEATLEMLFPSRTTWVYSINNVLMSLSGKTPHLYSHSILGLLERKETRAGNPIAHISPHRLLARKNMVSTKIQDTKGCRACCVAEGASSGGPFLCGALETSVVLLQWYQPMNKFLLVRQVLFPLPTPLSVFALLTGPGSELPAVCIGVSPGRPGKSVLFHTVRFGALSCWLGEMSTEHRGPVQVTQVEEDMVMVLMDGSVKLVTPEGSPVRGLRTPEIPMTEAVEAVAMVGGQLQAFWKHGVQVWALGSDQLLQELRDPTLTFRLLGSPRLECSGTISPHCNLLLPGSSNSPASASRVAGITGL
SMILES,DC50,Dmax
"CC(C)n1cnc2cc(-c3ccc4c(c3)N([C@H]3C[C@@H](N5CCCCC5)C3)C(=O)C43CCN(C(=O)C4(C)CCN(C(=O)C[C@H]5CCN(c6ccc(C7CCC(=O)NC7=O)cn6)C5)CC4)CC3)nc(NC3CC3)c21 (stereo partly drawn) [Example 154, 3-{6-[(3R)-3-{2-[4-({6-[4-(cyclopropylamino)-3-isopropylimidazo[4,5-c]pyridin-6-yl]-2-oxo-1-[(1S,3S)-3-(piperidin-1-yl)cyclobutyl]spiro[indole-3,4′-piperidin]-1′-yl}carbonyl)-4-methylpiperidin-1-yl]-2-oxoethyl}pyrrolidin-1-yl]pyridin-3-yl}piperidine-2,6-dione]",100 to 500 nM,50 to 70%
"CC(C)n1cnc2cc(-c3ccc4c(c3)N([C@H]3C[C@@H](N5CCCCC5)C3)C(=O)C43CCN(C(=O)N4CCC(C(=O)N5CCN(c6ccc(C7CCC(=O)NC7=O)cn6)CC5)CC4)CC3)nc(NC3CC3)c21 (stereo partly drawn) [Example 181, 3-(6-{4-[1-({6-[4-(cyclopropylamino)-3-(propan-2-yl)-3H-imidazo[4,5-c]pyridin-6-yl]-2-oxo-1-[(1S,3S)-3-(piperidin-1-yl)cyclobutyl]-1,2-dihydrospiro[indole-3,4′-piperidin]-1′-yl}carbonyl)piperidine-4-carbonyl]piperazin-1-yl}pyridin-3-yl)piperidine-2,6-dione]",100 to 500 nM,50 to 70%

# Further lines, results first:
DC50,Dmax,SMILES
< 100 nM,70 to 85%,"CC(C)n1cnc2cc(-c3ccc4c(c3)N([C@H]3C[C@@H](N5CCCCC5)C3)C(=O)C43CCN(C(=O)C4(C)CCN(C(=O)C5CCN(c6ccc(C7CCC(=O)NC7=O)cn6)CC5)CC4)CC3)nc(N3CC(C#N)C3)c21 (stereo partly drawn) [Example 175, 1-{6-[1′-(1-{1-[5-(2,6-dioxopiperidin-3-yl)pyridin-2-yl]piperidine-4-carbonyl}-4-methylpipe-ridine-4-carbonyl)-2-oxo-1-[(1S,3S)-3-(piperidin-1-yl)cyclobutyl]-1,2-dihydrospiro[indole-3,4′-pi-peridin]-6-yl]-3-(propan-2-yl)-3H-imidazo[4,5-c]pyridin-4-yl}azetidine-3-carbonitrile]"
< 100 nM,70 to 85%,"CC(C)n1cnc2cc(-c3ccc4c(c3)N([C@H]3C[C@@H](N5CCCCC5)C3)C(=O)C43CCN(C(=O)C4CCN(C(=O)[C@H]5CC[C@H](Cn6ncc7cc(C8CCC(=O)NC8=O)ccc76)CC5)CC4)CC3)nc(Nc3ccccc3F)c21 (mixture of isomers) [Example 64, (3RS)-3-(1-{[(1R,4R)-4-{4-[(6-{4-[(2-fluorophenyl)amino]-3-(propan-2-yl)-3H-imidazo[4,5-c]pyridin-6-yl}-2-oxo-1-[(1S,3S)-3-(piperidin-1-yl)cyclobutyl]-1,2-dihydrospiro[indole-3,4′-piperidin]-1′-yl)carbonyl]piperidine-1-carbonyl}cyclohexyl]methyl}-1H-indazol-5-yl)piperidine-2,6-dione]"
< 100 nM,70 to 85%,"CC(C)n1cnc2cc(-c3ccc4c(c3)N([C@H]3C[C@@H](N5CCCCC5)C3)C(=O)C43CCN(C(=O)C4(F)CCCN(C(=O)C5CCN(c6ccc(C7CCC(=O)NC7=O)cn6)CC5)C4)CC3)nc(NC3CC3)c21 (mixture of isomers) [Example 280, (3RS)-3-(6-{4-[3-({6-[4-(cyclopropylamino)-3-(propan-2-yl)-3H-imidazo[4,5-c]pyridin-6-yl]-2-oxo-1-[(1S,3S)-3-(piperidin-1-yl)cyclobutyl]-1,2-dihydrospiro[indole-3,4′-piperidin]-1′-yl}carbonyl)-3-fluoropiperidine-1-carbonyl]piperidin-1-yl}pyridin-3-yl)piperidine-2,6-dione]"
